IC50 and Kd data for 23 compounds are collected here from patent publication US20220324835A1 (Nurix Therapeutics, Inc., priority 2018, published 2022).

Test [1] concerns the target T1, Cbl-b (Homo sapiens, UniProt Q13191). As to the kind of experiment: Cbl-b activity assay (Cbl-b inhibition assay), TR-FRET of Cbl-b interaction with UbcH5B-Ub. In kind it is biochemical. Particulars: assay buffer with 100 mM NaCl, 60 nM Src kinase; read-out: Cbl-b activity IC50. The method, boiled down:
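TR-FRET readout of Cbl-b binding to Bodipy-fluorescein N-terminally labeled Ub conjugated to UbcH5B C85K, measured with compound present. After compound incubation, 60 nM Src kinase with 1 mM ATP and 5 mM MgCl2 (final) was added for 1.5 h, then a further 1 h incubation; asterisked values used 50 mM NaCl buffer and 30 nM Src.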
(Time-resolved FRET reads energy transfer from a long-lived donor to a nearby acceptor.)

The target in the next test is Cbl-b (residues 36-427) (Homo sapiens, UniProt Q13191). Briefly: Cbl-b binding assay (SPR, Biacore T200). Particulars: 20° C., 1:1 binding model. The method, boiled down: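 Affinities derived from global 1:1 steady-state or kinetic fits of double-referenced, solvent-corrected SPR data, 20 °C, NeutrAvidin-capture chip. Compound series (top 100 or 50 μM, 8–10 points) injected 50 s, 90–180 s dissociation. Asterisked values used 50 mM instead of 100 mM NaCl and 30 nM Src kinase.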
Cbl-b (residues 36-427), sequence (Q13191 36-427): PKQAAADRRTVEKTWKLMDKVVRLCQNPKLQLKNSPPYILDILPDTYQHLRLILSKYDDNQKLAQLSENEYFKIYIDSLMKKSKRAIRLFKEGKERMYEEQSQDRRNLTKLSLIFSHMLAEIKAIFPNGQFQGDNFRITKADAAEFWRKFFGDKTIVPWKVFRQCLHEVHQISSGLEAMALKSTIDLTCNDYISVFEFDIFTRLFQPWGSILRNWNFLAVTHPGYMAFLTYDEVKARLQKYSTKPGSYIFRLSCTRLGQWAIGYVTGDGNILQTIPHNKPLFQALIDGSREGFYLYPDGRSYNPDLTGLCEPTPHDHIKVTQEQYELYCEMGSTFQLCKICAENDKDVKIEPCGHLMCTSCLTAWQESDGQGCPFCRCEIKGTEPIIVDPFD
(Surface plasmon resonance follows binding to a sensor surface in real time, without labels.)

The target of test [2] is T1, Cbl-b. As to the kind of experiment: Cbl-b inhibition assay (Cbl-b activity assay, FRET, Biological Example 1; 100 mM NaCl, 60 nM Src kinase). In kind it is biochemical. Particulars: upper bound stated in text lists; read-out: IC50 values in the Cbl-b inhibition assay of Biological Example 1. The method, boiled down:
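Inhibitor activity is measured as reduced terbium-to-fluorescein FRET between streptavidin-terbium on biotinylated Cbl-b and Bodipy-fluorescein ubiquitin carried by an irreversible UbcH5B-Ub conjugate, binding of which depends on Src phosphorylation of Cbl-b.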

A value given as a limit tells only on which side of the number the result lay.

T1 sequence (Q13191 36-427): as above

By IC50 is commonly meant the concentration that inhibits the measured activity by half. For orientation: Kd means a measure of binding affinity in units of concentration. A lower Kd goes with a tighter complex. For `C[C@H](Cc1nncn1C)c1cccc(NC(=O)c2cc3ccccc3cn2)c1` [Compound 182, (R)-N-(3-(1-(4-methyl-4H-1,2,4-triazol-3-yl)propan-2-yl)phenyl)isoquinoline-3-carboxamide], the IC50 on Cbl-b [1] was 0.301 to 1 µM; at Cbl-b [2], ≤ 0.5 µM. The compound further gave a Kd on Cbl-b (residues 36-427) of 0.301 to 1 µM.

On to `C[C@@H](Cc1nncn1C)c1cccc(NC(=O)c2cccc(C(F)(F)F)n2)c1` [Compound 183b, (S)-N-(3-(1-(4-methyl-4H-1,2,4-triazol-3-yl)propan-2-yl)phenyl)-6-(trifluoromethyl)picolinamide], for which the IC50 on Cbl-b [1] was 0.1 to 0.3 µM; on Cbl-b [2], ≤ 10 µM. The Kd on Cbl-b (residues 36-427) was in the range of 3 to 10 µM.

Consider `C[C@H](Cc1nncn1C)c1cccc(NC(=O)c2cc(C(F)(F)F)ccn2)c1` [Compound 184, (R)-N-(3-(1-(4-methyl-4H-1,2,4-triazol-3-yl)propan-2-yl)phenyl)-4-(trifluoromethyl)picolinamide], for which the IC50 is 1 to 3 µM at Cbl-b [1] and ≤ 10 µM at Cbl-b [2]. This compound came in with a Kd on Cbl-b (residues 36-427) of 3 to 10 µM.

As for `C[C@@H](Cc1nncn1C)c1cccc(NC(=O)c2cc(S(C)(=O)=O)cc(C3CC3)n2)c1` [Compound 198b], the IC50 at Cbl-b [1] is 3 to 10 µM; on Cbl-b [2], ≤ 10 µM. The Kd at Cbl-b (residues 36-427) lay within 3 to 10 µM.

As for `C[C@H](Cc1nncn1C)c1cccc(NC(=O)c2cc(N[C@@H]3CC[C@H](O)C3)ccn2)c1` [Compound 204, 4-((1R,3S)-3-hydroxycyclopentylamino)-N-(3-((R)-1-(4-methyl-4H-1,2,4-triazol-3-yl)propan-2-yl)phenyl)picolinamide], the values for the IC50 on Cbl-b [1] and at Cbl-b [2] were 1 to 3 µM and ≤ 10 µM, respectively. The Kd on Cbl-b (residues 36-427) is 1 to 3 µM.

In the case of `C[C@H](Cc1nncn1C)c1cccc(NC(=O)c2cc(O[C@@H]3CC[C@H](O)C3)ccn2)c1` [Compound 207, 4-((1R,3S)-3-hydroxycyclopentyloxy)-N-(3-((R)-1-(4-methyl-4H-1,2,4-triazol-3-yl)propan-2-yl)phenyl)picolinamide], the IC50 on Cbl-b [1] is 0.301 to 1 µM; at Cbl-b [2], ≤ 1 µM. The compound also gave a Kd on Cbl-b (residues 36-427) of 1 to 3 µM.

Turning to `C[C@H](Cc1nncn1C)c1cccc(NC(=O)c2cc(N[C@H]3CC[C@@H](O)C3)ccn2)c1` [Compound 208, cis-4-(3-hydroxycyclopentylamino)-N-(3-((R)-1-(4-methyl-4H-1,2,4-triazol-3-yl)propan-2-yl)phenyl)picolinamide], the half-maximal inhibitory concentration (IC50) was 0.301 to 1 µM on Cbl-b [1] and ≤ 1 µM on Cbl-b [2]. This compound gave an equilibrium dissociation constant (Kd) at Cbl-b (residues 36-427) of 3 to 10 µM.

In the case of `C[C@@H](Cc1nncn1C)c1cccc(NC(=O)c2cc3cc(N4CCN(C)C(=O)C4)ccc3cn2)c1` [Compound 210, (S)-6-(4-methyl-3-oxopiperazin-1-yl)-N-(3-(1-(4-methyl-4H-1,2,4-triazol-3-yl)propan-2-yl)phenyl)isoquinoline-3-carboxamide 2,2,2-trifluoroacetate], the concentration for half-maximal inhibition (IC50) at Cbl-b [1] was 3 to 10 µM; on Cbl-b [2], ≤ 10 µM. At Cbl-b (residues 36-427), the Kd fell in the range of 3 to 10 µM.

Consider `C[C@H](Cc1nncn1C)c1cccc(NC(=O)c2cc(C(=O)N3C[C@@H](O)C[C@@H]3C)ccn2)c1` [Compound 223, 4-((2S,4S)-4-hydroxy-2-methylpyrrolidine-1-carbonyl)-N-(3-((R)-1-(4-methyl-4H-1,2,4-triazol-3-yl)propan-2-yl)phenyl)picolinamide], for which the IC50 is 3 to 10 µM on Cbl-b [1] and ≤ 10 µM on Cbl-b [2]. On Cbl-b (residues 36-427), this compound gave a Kd of 3 to 10 µM.

Take `C[C@H](Cc1nncn1C)c1cccc(NC(=O)c2cc(C(=O)N3CC(S(C)(=O)=O)C3)ccn2)c1` [Compound 225, 4-(3-methanesulfonylazetidine-1-carbonyl)-N-[3-[(2R)-1-(4-methyl-4H-1,2,4-triazol-3-yl)propan-2-yl]phenyl]pyridine-2-carboxamide]: the IC50 was 1 to 3 µM on Cbl-b [1] and ≤ 10 µM at Cbl-b [2]. On Cbl-b (residues 36-427), the Kd was in the range of 3 to 10 µM.

On to `C[C@H](Cc1nncn1C)c1cccc(NC(=O)c2cc(C(=O)NCC(C)(C)O)ccn2)c1` [Compound 226, (R)-N^4-(2-hydroxy-2-methylpropyl)-N^2-(3-(1-(4-methyl-4H-1,2,4-triazol-3-yl)propan-2-yl)phenyl)pyridine-2,4-dicarboxamide], for which the results for the IC50 at Cbl-b [1] and at Cbl-b [2] were 3 to 10 µM and ≤ 10 µM, respectively. In addition, at Cbl-b (residues 36-427), the Kd lay in the range of 3 to 10 µM.

For `C[C@H](Cc1nncn1C)c1cccc(NC(=O)c2cc(C(=O)N3CCC(C)(O)CC3)ccn2)c1` [Compound 227, (R)-4-(4-hydroxy-4-methylpiperidine-1-carbonyl)-N-(3-(1-(4-methyl-4H-1,2,4-triazol-3-yl)propan-2-yl)phenyl)picolinamide], the IC50 is 1 to 3 µM on Cbl-b [1] and ≤ 10 µM on Cbl-b [2]. Further, the Kd on Cbl-b (residues 36-427) is 3 to 10 µM.

On to `C[C@H](Cc1nncn1C)c1cccc(NC(=O)c2cc(C(=O)N3CC[C@](C)(N)C3)ccn2)c1` [Compound 229, 4-((S)-3-amino-3-methylpyrrolidine-1-carbonyl)-N-(3-((R)-1-(4-methyl-4H-1,2,4-triazol-3-yl)propan-2-yl)phenyl)picolinamide], for which the IC50 at Cbl-b [1] was 1 to 3 µM; on Cbl-b [2] it was ≤ 10 µM. The same compound gave a Kd at Cbl-b (residues 36-427) of 1 to 3 µM.

In the case of `C[C@H](Cc1nncn1C)c1cccc(NC(=O)c2cc(C(=O)N3CCC(O)C3(C)C)ccn2)c1` (stereo partly drawn) [Compound 231, 4-(3-hydroxy-2,2-dimethylpyrrolidine-1-carbonyl)-N-(3-((R)-1-(4-methyl-4H-1,2,4-triazol-3-yl)propan-2-yl)phenyl)picolinamide], the IC50 on Cbl-b [1] was 1 to 3 µM; on Cbl-b [2], ≤ 10 µM. On Cbl-b (residues 36-427), this compound yielded an equilibrium dissociation constant (Kd) of 0.1 to 0.3 µM.

Turning to `C[C@H](Cc1nncn1C)c1cccc(NC(=O)c2cc(C(=O)N3CCC4(COC4)C3)ccn2)c1` [Compound 233, N-[3-[(2R)-1-(4-methyl-4H-1,2,4-triazol-3-yl)propan-2-yl]phenyl]-4-[2-oxa-6-azaspiro[3.4]octane-6-carbonyl]pyridine-2-carboxamide], the IC50 is 3 to 10 µM on Cbl-b [1] and ≤ 10 µM on Cbl-b [2]. In addition, on Cbl-b (residues 36-427), the Kd lay within 3 to 10 µM.

With `C[C@H](Cc1nncn1C)c1cccc(NC(=O)c2cc(C(=O)N3C[C@@H]4[C@@H](O)[C@@H]4C3)ccn2)c1` [Compound 234, 4-[(1R,5S,6R)-6-hydroxy-3-azabicyclo[3.1.0]hexane-3-carbonyl]-N-[3-[(2R)-1-(4-methyl-4H-1,2,4-triazol-3-yl)propan-2-yl]phenyl]pyridine-2-carboxamide], the IC50 is 1 to 3 µM at Cbl-b [1] and ≤ 10 µM at Cbl-b [2]. This compound had a Kd on Cbl-b (residues 36-427) of 1 to 3 µM.

Take `C[C@H](Cc1nncn1C)c1cccc(NC(=O)c2cc(C(=O)N3C[C@H](O)[C@@H](F)C3)ccn2)c1` [Compound 235, 4-[(3S,4S)-3-fluoro-4-hydroxypyrrolidine-1-carbonyl]-N-[3-[(2R)-1-(4-methyl-4H-1,2,4-triazol-3-yl)propan-2-yl]phenyl]pyridine-2-carboxamide]: the IC50 is 1 to 3 µM at Cbl-b [1] and ≤ 10 µM on Cbl-b [2]. Moreover, the Kd on Cbl-b (residues 36-427) was in the range of 3 to 10 µM.

For `C[C@H](Cc1nncn1C)c1cccc(NC(=O)c2cc(C(=O)N3CC[C@H](C#N)C3)ccn2)c1` [Compound 236, 4-[(3S)-3-cyanopyrrolidine-1-carbonyl]-N-[3-[(2R)-1-(4-methyl-4H-1,2,4-triazol-3-yl)propan-2-yl]phenyl]pyridine-2-carboxamide], the IC50 on Cbl-b [1] was 1 to 3 µM; at Cbl-b [2] it was ≤ 10 µM. The same compound had a Kd on Cbl-b (residues 36-427) of 1 to 3 µM.

`C[C@H](Cc1nncn1C)c1cccc(NC(=O)c2cc(C(=O)N3CC[C@@H](C#N)C3)ccn2)c1` [Compound 238, 4-((R)-3-cyanopyrrolidine-1-carbonyl)-N-(3-((R)-1-(4-methyl-4H-1,2,4-triazol-3-yl)propan-2-yl)phenyl)picolinamide]: the figures for the 50% inhibitory concentration (IC50) at Cbl-b [1] and at Cbl-b [2] were 1 to 3 µM and ≤ 10 µM, respectively. Besides, on Cbl-b (residues 36-427), the Kd is 1 to 3 µM.

For `C[C@H](Cc1nncn1C)c1cccc(NC(=O)c2cc(C(=O)N3CC(O)C(C)(C)C3)ccn2)c1` (stereo partly drawn) [Compound 239, 4-(4-hydroxy-3,3-dimethylpyrrolidine-1-carbonyl)-N-(3-((R)-1-(4-methyl-4H-1,2,4-triazol-3-yl)propan-2-yl)phenyl)picolinamide], the IC50 at Cbl-b [1] was 1 to 3 µM; at Cbl-b [2], ≤ 10 µM. On Cbl-b (residues 36-427), the Kd was 0.1 to 0.3 µM.

Take `CC(O)C1CN(C(=O)c2ccnc(C(=O)Nc3cccc([C@H](C)Cc4nncn4C)c3)c2)C1` (stereo partly drawn) [Compound 241, 4-(3-(1-hydroxyethyl)azetidine-1-carbonyl)-N-(3-((R)-1-(4-methyl-4H-1,2,4-triazol-3-yl)propan-2-yl)phenyl)picolinamide]: the IC50 was 3 to 10 µM at Cbl-b [1] and ≤ 10 µM at Cbl-b [2]. Further, the Kd at Cbl-b (residues 36-427) was < 0.1 µM.

`C[C@H](Cc1nncn1C)c1cccc(NC(=O)c2cc(C(=O)N3CCNCC3)ccn2)c1` [Compound 242, (R)-N-(3-(1-(4-methyl-4H-1,2,4-triazol-3-yl)propan-2-yl)phenyl)-4-(piperazine-1-carbonyl)picolinamide]: the IC50 at Cbl-b [1] was 3 to 10 µM; at Cbl-b [2], ≤ 10 µM. The Kd at Cbl-b (residues 36-427) lay within 3 to 10 µM.

Regarding `CNCCNC(=O)c1ccnc(C(=O)Nc2cccc([C@H](C)Cc3nncn3C)c2)c1` [Compound 244, (R)-N2-(3-(1-(4-methyl-4H-1,2,4-triazol-3-yl)propan-2-yl)phenyl)-N4-(2-(methylamino)ethyl)pyridine-2,4-dicarboxamide], the IC50 was 1 to 3 µM on Cbl-b [1] and ≤ 10 µM on Cbl-b [2]. At Cbl-b (residues 36-427), the Kd was 1 to 3 µM.
